Test system: logarithmic E. coli cells
Experiment: Preservation survival and stability of logarithmic E. coli cells loaded in vitro before foam drying
Format: cell-based
Details: for Preservation Yield (Day 0) % Survival / Preservation Yield (Day 0) Cfu/ml / Stability (Day 7 at RT) % Survival / Stability (Day 7 at RT) Cfu/ml / Stability (Day 14) % Survival / Stability (Day 14) Cfu/ml: loaded with 10% MAG at 37° C. for 30 minutes
Method: (3) Loading of fresh electrocompetent E. coli cells before preservation: When applicable, one aliquot of the cell concentrate (3.2 ml of cells in PBS buffer, approx. 2×10^10 cfu/ml) was mixed with 0.8 ml of 50% methyl-glucoside (MAG; 10% final concentration) and incubated at 37° C. for 30 minutes (in vitro loading). A second aliquot (3.2 ml of the cell concentrate) was mixed with 0.8 ml of PBS buffer and incubated on ice for 30 minutes (control, unloaded cells). Similar to loading with MAG, the cells were loaded with 2-deoxyglucose (2-DOG) as described in Example 5 infra.
(4) Preservation of electrocompetent E. coli cells: The cells (resuspended in PBS buffer or on 20% sucrose) were mixed with an equal mass of preservation solution consisting of 45% 2:1 sucrose:raffinose or 45% 4:1 sucrose:MAG on ice. Altematively, the cell pellets were resuspended directly in 22.5% sucrose:raffinose or 22.5% 4:1 sucrose:MAG. The 0.5 g aliquots were distributed in 5 ml glass serum vials or 0.2 g aliquots were distributed in 1.2 ml glass serum vials. To determine the survival in preservation solution before drying, cell-containing mixtures were diluted in PBS buffer containing 20% sucrose and appropriate dilutions were spread plated in duplicate on L-agar plates.
The samples were dried by foam formation. The mixtures were foamed at 0° C. and kept at that temperature until foam formation occurred. After foam was well formed, shelf temperature was increased to 20° C. and drying continued overnight (at least 12 hours).
(5) Assaying the preserved E. coli cells: Dried samples were rehydrated at room temperature. 1 ml of rehydration solution (20% sucrose) was added to the 5 ml vials and 0.2 ml was added to the 1.2 ml vials. For the determination of preservation survival, rehydrated cells were diluted and spread plated in duplicate on L-agar plates. Plates were incubated at 37° C. overnight and colonies were counted the following day.
Bacterial culture was grown until OD550=0.5 was reached (mid-log growth stage). The cell concentrates were prepared as described previously. Control cells, which were not loaded, were incubated on ice for 30 minutes. Cell concentrates were incubated with different amounts (0.15-1%, 5%, 10% and 15%) of glucose and glucose nonmetabolizable analogs at 37° C. for 30 minutes (loading). These mixtures were preserved as described previously.
Accumulation of MAG in the cells prior to drying enhances preservation of logarithmic E. coli cells. Two cell concentrates (harvested at mid-log growth stage) were prepared as described previously. To induce uptake of MAG, 0.5% glucose was added to the growth medium (“induced culture”). Both concentrates were incubated with 10% MAG at 37° C. for 30 minutes (loading). When loading was completed, one concentrate was diluted 100-fold in PBS buffer and incubated at 37° C. for an additional 30 minutes to induce expulsion of the pre-accumulated MAG. Both concentrates were preserved as described previously.
Mid-logarithmic culture was prepared as described previously. 0.5% glucose was added to the growth medium (“induced cells”). The culture was concentrated 10-fold and the concentrates were incubated for 30 minutes with 10% MAG at different temperatures (0, 20, 40, and 60° C.). The mixtures were preserved as described previously.
Effect of incubation time on accumulation of MAG in logarithmic E. coli cells. Cell concentrates were prepared as described previously (0.5% glucose was added to the growth medium) and incubated with 10% MAG at 37° C. for 0, 2.5, 5, 15, 30, and 60 minutes. The mixtures were preserved as described previously.
Effect of growth stage on accumulation of MAG in E. coli cells. E. coli cultures were grown in L-broth with 0.5% glucose as described previously and harvested at OD550=0.1 (early-log), 0.5 (mid-log), 1.0 (late-log) and 2.0 (stationary cells). The cells in each culture were concentrated and split in two aliquots. […]

[1] = 10% MAG at 37° C., Incubated for 0 min
[2] = 10% MAG at 37° C., Incubated for 2.5 min
[3] = 10% MAG at 37° C., Incubated for 5 min
[4] = 10% MAG at 37° C., Incubated for 15 min
[5] = 10% MAG at 37° C., Incubated for 30 min
[6] = 10% MAG at 37° C., Incubated for 60 min
[7] = 10% MAG for 30 minutes, Loaded at 0° C.
[8] = 10% MAG for 30 minutes, Loaded at 20° C.
[9] = 10% MAG for 30 minutes, Loaded at 40° C.
[10] = 10% MAG for 30 minutes, Loaded at 60° C.

COC1OC(CO)C(O)C(O)C1O (centres unmarked) [MAG, a-methyl-glucoside]
Preservation Yield % Survival [1]: 2.6 +/− 0.8% | Preservation Yield Cfu/ml [1]: 5.3 × 10^7 +/− 1.7 × 10^7 Cfu/ml | Stability (7 days at RT) % Survival [1]: 1.2 +/− 0.7% | Stability (7 days at RT) Cfu/ml [1]: 2.4 × 10^7 Cfu/ml | Stability (17 days at RT) % Survival [1]: 1.8 +/− 0.5% | Stability (17 days at RT) Cfu/ml [1]: 3.6 × 10^7 Cfu/ml | Preservation Yield % Survival [2]: 5.8 +/− 1.1% | Preservation Yield Cfu/ml [2]: 1.2 × 10^8 +/− 2.1 × 10^7 Cfu/ml | Stability (7 days at RT) % Survival [2]: 4.9 +/− 0.8% | Stability (7 days at RT) Cfu/ml [2]: 9.6 × 10^7 Cfu/ml | Stability (17 days at RT) % Survival [2]: 2.9 +/− 0.6% | Stability (17 days at RT) Cfu/ml [2]: 5.9 × 10^7 Cfu/ml | Preservation Yield % Survival [3]: 9.9 +/− 0.6% | Preservation Yield Cfu/ml [3]: 2.0 × 10^8 +/− 1.1 × 10^7 Cfu/ml | Stability (7 days at RT) % Survival [3]: 6.8 +/− 1.2% | Stability (7 days at RT) Cfu/ml [3]: 1.4 × 10^8 Cfu/ml | Stability (17 days at RT) % Survival [3]: 9.5 +/− 2.7% | Stability (17 days at RT) Cfu/ml [3]: 1.9 × 10^8 Cfu/ml | Preservation Yield % Survival [4]: 16.8 +/− 2.8% | Preservation Yield Cfu/ml [4]: 3.4 × 10^8 +/− 5.6 × 10^7 Cfu/ml | Stability (7 days at RT) % Survival [4]: 10.4 +/− 0.4% | Stability (7 days at RT) Cfu/ml [4]: 2.1 × 10^8 Cfu/ml | Stability (17 days at RT) % Survival [4]: 11.8 +/− 2.6% | Stability (17 days at RT) Cfu/ml [4]: 2.4 × 10^8 Cfu/ml | Preservation Yield % Survival [5]: 19.9 +/− 2.2% | Preservation Yield Cfu/ml [5]: 4.0 × 10^8 +/− 4.4 × 10^7 Cfu/ml | Stability (7 days at RT) % Survival [5]: 13.0 +/− 2.7% | Stability (7 days at RT) Cfu/ml [5]: 2.6 × 10^8 Cfu/ml | Stability (17 days at RT) % Survival [5]: 16.8 +/− 2.6% | Stability (17 days at RT) Cfu/ml [5]: 3.4 × 10^8 Cfu/ml | Preservation Yield % Survival [6]: 22.2 +/− 3.0% | Preservation Yield Cfu/ml [6]: 4.4 × 10^8 +/− 6.1 × 10^7 Cfu/ml | Stability (7 days at RT) % Survival [6]: 16.3 +/− 1.9% | Stability (7 days at RT) Cfu/ml [6]: 3.3 × 10^8 Cfu/ml | Stability (17 days at RT) % Survival [6]: 19.3 +/− 3.9% | Stability (17 days at RT) Cfu/ml [6]: 3.9 × 10^8 Cfu/ml | Preservation Yield % Survival [7]: 8.2 +/− 1.4% | Preservation Yield Cfu/ml [7]: 1.6 × 10^8 Cfu/ml | Stability (9 Days at RT°) % Survival [7]: 5.0 +/− 0.6% | Stability (9 Days at RT°) Cfu/ml [7]: 9.4 × 10^7 Cfu/ml | Stability (16 Days at RT°) % Survival [7]: 5.2 +/− 1.5% | Stability (16 Days at RT°) Cfu/ml [7]: 9.9 × 10^7 Cfu/ml | Preservation Yield % Survival [8]: 14.1 +/− 2.6% | Preservation Yield Cfu/ml [8]: 2.7 × 10^8 Cfu/ml | Stability (9 Days at RT°) % Survival [8]: 8.7 +/− 0.6% | Stability (9 Days at RT°) Cfu/ml [8]: 1.6 × 10^8 Cfu/ml | Stability (16 Days at RT°) % Survival [8]: 7.3 +/− 1.7% | Stability (16 Days at RT°) Cfu/ml [8]: 1.4 × 10^8 Cfu/ml | Preservation Yield % Survival [9]: 23.2 +/− 3.5% | Preservation Yield Cfu/ml [9]: 4.4 × 10^8 Cfu/ml | Stability (9 Days at RT°) % Survival [9]: 28.1 +/− 3.5% | Stability (9 Days at RT°) Cfu/ml [9]: 5.3 × 10^8 Cfu/ml | Stability (16 Days at RT°) % Survival [9]: 21.0 +/− 1.9% | Stability (16 Days at RT°) Cfu/ml [9]: 3.9 × 10^8 Cfu/ml | Preservation Yield % Survival [10]: 0% | Preservation Yield Cfu/ml [10]: 1.4 × 10^4 Cfu/ml | Stability (9 Days at RT°) % Survival [10]: 0% | Stability (9 Days at RT°) Cfu/ml [10]: 1.2 × 10^4 Cfu/ml | Stability (16 Days at RT°) % Survival [10]: 0% | Stability (16 Days at RT°) Cfu/ml [10]: 1.3 × 10^4 Cfu/ml | Preservation Yield (Day 0) % Survival (OD = 0.1 (early-log)): 11.3 +/− 0.9% | Preservation Yield (Day 0) Cfu/ml (OD = 0.1 (early-log)): 1.6 × 10^7 Cfu/ml | Stability (Day 7 at RT) % Survival (OD = 0.1 (early-log)): 8.2 +/− 0.8% | Stability (Day 7 at RT) Cfu/ml (OD = 0.1 (early-log)): 1.2 × 10^7 Cfu/ml | Stability (Day 14) % Survival (OD = 0.1 (early-log)): 9.9 +/− 2.2% | Stability (Day 14) Cfu/ml (OD = 0.1 (early-log)): 1.5 × 10^7 Cfu/ml | Preservation Yield (Day 0) % Survival (OD = 0.5 (mid-log)): 22.2 +/− 2.9% | Preservation Yield (Day 0) Cfu/ml (OD = 0.5 (mid-log)): 5.5 × 10^8 Cfu/ml | Stability (Day 7 at RT) % Survival (OD = 0.5 (mid-log)): 21.6 +/− 4.7% | Stability (Day 7 at RT) Cfu/ml (OD = 0.5 (mid-log)): 5.3 × 10^8 Cfu/ml | Stability (Day 14) % Survival (OD = 0.5 (mid-log)): 17.4 +/− 1.2% | Stability (Day 14) Cfu/ml (OD = 0.5 (mid-log)): 4.3 × 10^8 Cfu/ml | Preservation Yield (Day 0) % Survival (OD = 1.0 (late-log)): 26.3 +/− 4.7% | Preservation Yield (Day 0) Cfu/ml (OD = 1.0 (late-log)): 2.3 × 10^9 Cfu/ml | Stability (Day 7 at RT) % Survival (OD = 1.0 (late-log)): 36.1 +/− 7.5% | Stability (Day 7 at RT) Cfu/ml (OD = 1.0 (late-log)): 3.2 × 10^9 Cfu/ml | Stability (Day 14) % Survival (OD = 1.0 (late-log)): 33.0 +/− 5.7% | Stability (Day 14) Cfu/ml (OD = 1.0 (late-log)): 2.9 × 10^9 Cfu/ml | Preservation Yield (Day 0) % Survival (OD = 2.0 (stationary cells)): 38.8 +/− 5.8% | Preservation Yield (Day 0) Cfu/ml (OD = 2.0 (stationary cells)): 2.8 × 10^9 Cfu/ml | Stability (Day 7 at RT) % Survival (OD = 2.0 (stationary cells)): 29.9 +/− 3.6% | Stability (Day 7 at RT) Cfu/ml (OD = 2.0 (stationary cells)): 2.1 × 10^9 Cfu/ml | Stability (Day 14) % Survival (OD = 2.0 (stationary cells)): 35.3 +/− 7.5% | Stability (Day 14) Cfu/ml (OD = 2.0 (stationary cells)): 2.5 × 10^9 Cfu/ml | survived drying (mid-logarithmic cells loaded with 1% at 37° C. for 30 minutes): 12% | survived drying (mid-logarithmic cells loaded with 5% at 37° C. for 30 minutes): 24%
